Measured values published in patent US20260184669A1, “LIPID COMPOUND AND COMPOSITION FOR DELIVERY OF ACTIVE SUBSTANCE” (KOREA RESEARCH INSTIUTE OF BIOSCIENCE AND BIOTECHNOLOGY, priority 2022, published 2026).

Tests used:
[1] = system: CCL3 mRNA level in HEK-293T cells; conditions: human
[2] = Size, polydispersity index and surface charge of mRNA-LNP (Malvern Zetasizer Nano ZS90); type: physicochemical; conditions: for PDI / size (nm) Number: mRNA-LNP made with the ionizable lipid at its optimal formulation (Table 2); for size (nm) Number: diluted with PBS to 1 μg/mL mRNA; for Zeta (mV): surface charge of mRNA-LNP made with the ionizable lipid at its optimal formulation (Table 2)
Experimental: Each mRNA-LNPs produced in Example 27 was diluted with PBS to a final mRNA concentration of 1 μg/mL. The size, polydispersity index (PDI), and surface charge of the mRNA-LNPs were then measured using a Malvern Zetasizer Nano ZS90 (Malvern Instruments, UK).
For particles intended for systemic administration, such as via blood vessels, the particle size must be less than 200 nm in order to pass through the endothelial capillaries of the liver. In addition, the size distribution is considered uniform only when the PDI is 0.3 or less, which enables consistent and efficient therapeutic effects (Non-patent document 3 [Danaei, M. et al). Pharmaceutics 2018, 10, 57]).

[3] = system: IL-6 mRNA level in HEK-293T cells; conditions: human
[4] = mRNA encapsulation efficiency (Quant-IT RiboGreen RNA assay); type: physicochemical; conditions: mRNA encapsulation efficiency of mRNA-LNP made with the ionizable lipid; average of two measurements
Experimental: The mRNA encapsulation efficiency (EE, %) of LNPs containing mRNA was measured using the Quant-IT™ RiboGreen® RNA assay kit (Invitrogen, USA).
The diluted samples were added to each well of a 96-well plate. Group A (without Triton X-100) was supplemented with 50 μL of 1×TE buffer, while Group B (with Triton X-100) was supplemented with 50 μL of 1×TE buffer containing 2% Triton-X 100. To release the encapsulated mRNA, the LNPs were treated with Triton-X 100 and incubated at 37° C. for 10 minutes. Subsequently, 100 μL of ribogreen reagent was added to each well. The fluorescence intensities of Group A and Group B were measured using a multi-plate reader (λex 480 nm, λem 520 nm), and mRNA encapsulation efficiency (%) was calculated using Equation 1 below. The encapsulation efficiency for each LNP was determined as the average of two independent measurements.

[5] = system: IL-1β mRNA level in HEK-293T cells; conditions: human
[6] = system: CCL2 mRNA level in HEK-293T cells; conditions: human
female C57BL/6 mice = test: Protein expression efficiency of fLuc mRNA-LNPs after intramuscular injection (IVIS whole-body luminescence); type: in vivo; conditions: for Total flux 1 hour / Total flux 3 hours / Total flux 6 hours / Total flux 48 hours / Total flux 72 hours / Total flux: fLuc mRNA-LNP, intramuscular injection, luminescence at injection site, mice; for Total flux 1 hour: 1 hour after administration; for Total flux 3 hours: 3 hours after administration; for Total flux 6 hours: 6 hours after administration; for Total flux 48 hours: 48 hours after administration; for Total flux 72 hours: 72 hours after administration; for Total flux: after administration; for Fold increase in total flux at 3 h, MC3: relative to control LNP formulated with MC3; for Fold increase in total flux at 3 h, MC3 / Fold increase in total flux at 3 h, SM-102: 3 hours after intramuscular injection; for Fold increase in total flux at 3 h, SM-102: relative to control LNP formulated with SM-102
Experimental: fLuc mRNA-LNPs formulated using various ionizable lipids were prepared according to the method described in Example 27 and administered in vivo via intramuscular (I. M.) or intravenous (IV.) injection to compare the resulting protein expression efficiency in vivo. As a control, EGFP mRNA-LNPs formulated with commercially available ionizable lipids MC3 or SM-102 were used. All mRNA-LNPs were administered at equal mRNA doses per body weight across different concentration groups (n≥4).
Specifically, the dose of mRNA-LNPs was adjusted to 0.1-0.5 mg/kg of body weight, and the formulation was administered via I.M. or I.V. injection to female C57BL/6 mice (6-10 weeks old, Orient Bio, Korea) Subsequently, […], whole-body luminescence images were acquired using an in vivo imaging system (IVIS Lumina III, PerkinElmer, Walzam, MA, USA). To assess protein expression levels, 200 μL of D-luciferin (15 mg/mL) was administered via intraperitoneal (I.P.) injection 10 minutes prior to imaging. During image acquisition, the animals were anesthetized by inhalation of 3% isoflurane in 97% medical grade oxygen. In addition, the acquired luminescence images were quantitatively analyzed using imaging software (Living Image Software Version 4.4; PerkinElmer, USA).
After intramuscular injection of the fLuc mRNA-LNPs, the luminescence intensity at the injection site was measured over time.
Furthermore, the luminescence intensity at the injection site 3 hours after intramuscular injection was measured, and the relative protein expression efficiency was compared to that of control LNPs formulated with MC3 or SM-102.

[7] = Stability of mRNA-LNPs according to storage temperature and duration; type: physicochemical; conditions: for Normalized EE % D-1 / Size (nm) D-1 / PDI D-1: day 1; for Normalized EE % D-7 / PDI D-7 / Size (nm) D-7: day 7; for Normalized EE % D-30 / PDI D-30 / Size (nm) D-30: day 30
Experimental: Stability of fLuc mRNA-LNPs produced using various ionizable lipids according to the method of Example 27, was assessed by storing the LNPs at 4° C. and 25° C. At 1, 7, and 30 days post-manufacture, the size, PDI, and encapsulation efficiency (EE) of each mRNA-LNPs samples were measured using the methods described in Experimental Examples 2 and 3.

Row | SMILES | CCL3 Average [1] | PDI [2] | size (nm) Number [2] [nm] | Zeta (mV) [2] [mV] | IL-6 Average [3] | EE (%) [4] [%] | IL-1β Average [5] | CCL2 Average [6] | Total flux 1 hour (female C57BL/6 mice) | Total flux 3 hours (female C57BL/6 mice) | Total flux 6 hours (female C57BL/6 mice) | Total flux 48 hours (female C57BL/6 mice) | Total flux 72 hours (female C57BL/6 mice) | Total flux (female C57BL/6 mice) | Fold increase in total flux at 3 h, MC3 (female C57BL/6 mice) | Fold increase in total flux at 3 h, SM-102 (female C57BL/6 mice) | Normalized EE % D-1 ([7]; fLuc mRNA-LNP stored at 4° C.) [%] | Size (nm) D-1 ([7]; fLuc mRNA-LNP stored at 4° C.) [nm] | Normalized EE % D-7 ([7]; fLuc mRNA-LNP stored at 4° C.) [%] | PDI D-7 ([7]; fLuc mRNA-LNP stored at 4° C.) | also measured
1 | CCCCCCCCCCCOC(=O)CCCCCN(CCCCCCCC(=O)OC(CCCCCCCC)CCCCCCCC)CC(O)CCCCNC(=O)c1[nH]ccc1O (centres unmarked) [Compound 21, Heptadecan-9-yl 8-((2-hydroxy-6-(3-hydroxy-1H-pyrrole-2-carboxamido)hexyl)(6-oxo-6-(undecyloxy)hexyl)amino)octanoate] | 1.82 | 0.155 | 112 | −4.55 | 1.39 | 92 | 1.18 | 0.63 | 1.98E+07 | 1.29E+08 | 9.56E+07 | 3.51E+06 | 1.66E+06 | 1.25E+07 | 10.42 | 1.14 | – | – | – | – | protein expression compared to the control group (SM-102) (female C57BL/6 mice; 3 hours post intramuscular injection, in words): significantly higher protein expression
2 | CCCCCCCCCCCOC(=O)CCCCCN(CCCCCCCC(=O)OC(CCCCCCCC)CCCCCCCC)CC(O)CCCCNC(=O)c1ccn(C)c1 (centres unmarked) [Compound 19, Heptadecan-9-yl 8-((2-hydroxy-6-(1-methyl-1H-pyrrole-3-carboxamido)hexyl) (6-oxo-6-(undecyloxy)hexyl)amino)octanoate] | 1.04 | 0.193 | 185 | −5.68 | 0.89 | 93 | 1.07 | 0.91 | 3.16E+07 | 5.15E+07 | 3.82E+07 | 1.12E+06 | 5.38E+05 | 8.29E+06 | 4.17 | 0.46 | 93.1 | 184.7 | 90.6 | 0.122 | Size (nm) D-7 ([7]; fLuc mRNA-LNP stored at 4° C.): 161.2 nm; Normalized EE % D-30 ([7]; fLuc mRNA-LNP stored at 4° C.): 87.2%; PDI D-30 ([7]; fLuc mRNA-LNP stored at 4° C.): 0.071; Size (nm) D-30 ([7]; fLuc mRNA-LNP stored at 4° C.): 177.4 nm; Normalized EE % D-1 ([7]; fLuc mRNA-LNP stored at 25° C.): 93.1%; PDI D-1 ([7]; fLuc mRNA-LNP stored at 25° C.): 0.193; Size (nm) D-1 ([7]; fLuc mRNA-LNP stored at 25° C.): 184.7 nm; Normalized EE % D-7 ([7]; fLuc mRNA-LNP stored at 25° C.): 88.1%; PDI D-7 ([7]; fLuc mRNA-LNP stored at 25° C.): 0.107; Size (nm) D-7 ([7]; fLuc mRNA-LNP stored at 25° C.): 172.5 nm; Normalized EE % D-30 ([7]; fLuc mRNA-LNP stored at 25° C.): 88.3%; PDI D-30 ([7]; fLuc mRNA-LNP stored at 25° C.): 0.159; Size (nm) D-30 ([7]; fLuc mRNA-LNP stored at 25° C.): 171.7 nm
3 | CCCCCCCCCCCOC(=O)CCCCCN(CCCCCCCC(=O)OC(CCCCCCCC)CCCCCCCC)CC(O)CCCCNC(=O)c1c(O)ccn1C (centres unmarked) [Compound 24, Heptadecan-9-yl 8-((2-hydroxy-6-(3-hydroxy-1-methyl-1H-pyrrole-2-carboxamido)hexyl)(6-oxo-6-(undecyloxy)hexyl)amino)octanoate] | 1.36 | 0.114 | 137 | −7.89 | 0.87 | 90 | 0.99 | 0.96 | 6.70E+06 | 3.49E+07 | 4.45E+07 | 3.86E+06 | 3.66E+06 | 7.85E+06 | 2.82 | 0.31 | 89.7 | 136.9 | 90.5 | 0.114 | Size (nm) D-7 ([7]; fLuc mRNA-LNP stored at 4° C.): 123.7 nm; Normalized EE % D-1 ([7]; fLuc mRNA-LNP stored at 25° C.): 89.7%; PDI D-1 ([7]; fLuc mRNA-LNP stored at 25° C.): 0.114; Size (nm) D-1 ([7]; fLuc mRNA-LNP stored at 25° C.): 136.9 nm; Normalized EE % D-7 ([7]; fLuc mRNA-LNP stored at 25° C.): 89.6%; PDI D-7 ([7]; fLuc mRNA-LNP stored at 25° C.): 0.163; Size (nm) D-7 ([7]; fLuc mRNA-LNP stored at 25° C.): 113.5 nm
